The results in this text go back to BindingDB's records for patent US20240217978 (Chong Kun Dang Pharmaceutical, 2024).

This test deals with Adenosine receptor A2a (Homo sapiens, UniProt P29274). The test is described as follows: Evaluation of A2a Receptor Binding Affinity. How it is done: A radioligand binding test was conducted by using [3H]-NECA (5′-N-[adenine-2,8-3H]-ethylcarboxamidoadenosine) and an adenosine A2a membrane. As the adenosine A2a membrane, a cell membrane prepared from HEK-293 cells transfected with human adenosine A2a receptor was used. The membrane used for the test was prepared by incubating with a radioligand until equilibrium was reached. In order to separate the radioligand-bound membrane, the unbound radioligand was separated by using Packard filtermate Harverster and glass filter plates.10 μL of test compound dissolved in binding buffer (50 mM Tris, 10 mM MgCl2, 1 mM EDTA pH 7.4) and 20 μL of [3H]-NECA (final concentration of 37 nM) or reference inhibitor was mixed with 20 μL of A2a membrane in an unbound 96-well plate and incubated at room temperature for one hour. Prior to filtration, a 96-well harvest filter plate was coated with 0.33% polyethylenimine for 30 minutes and then washed with assay buffer. The binding reaction was transferred to the filter plate and washed three times with wash buffer. The dish was then dried, scintillant was added, and radioactivity was counted in a scintillation counter (Topcount NXT, Packard).
Sequence of Adenosine receptor A2a (P29274 whole entry): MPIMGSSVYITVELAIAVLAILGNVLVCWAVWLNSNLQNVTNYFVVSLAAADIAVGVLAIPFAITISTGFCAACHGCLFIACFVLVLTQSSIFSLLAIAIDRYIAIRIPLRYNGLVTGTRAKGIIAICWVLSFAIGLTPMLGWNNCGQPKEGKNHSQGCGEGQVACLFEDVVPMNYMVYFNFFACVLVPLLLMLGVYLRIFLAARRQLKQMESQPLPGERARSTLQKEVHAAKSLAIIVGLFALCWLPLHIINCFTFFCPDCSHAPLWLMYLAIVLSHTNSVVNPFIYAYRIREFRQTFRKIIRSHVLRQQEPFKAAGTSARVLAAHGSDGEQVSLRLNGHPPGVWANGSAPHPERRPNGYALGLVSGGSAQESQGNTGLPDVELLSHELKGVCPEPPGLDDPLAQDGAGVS

As to `CCNC(=O)N1CCN(C(=O)[C@@H]2CCCN2c2nc(N)n3nc(-c4ccco4)nc3n2)CC1` [US20240217978, Example 115], the IC50 was determined as 10 nM. With `Nc1nc(N2CCC[C@H]2C(=O)N2CCC(C(=O)Nc3cccc(F)c3)CC2)nc2nc(-c3ccco3)nn12` [US20240217978, Example 130], the IC50 was 2 nM. The compound `Nc1nc(N2CCC[C@H]2C(=O)N2CCCN(c3ncccn3)CC2)nc2nc(-c3ccco3)nn12` [US20240217978, Example 277] displayed an IC50 of 12 nM.
